According to patent US8487121B2, “Chromane derivatives as TRPV3 modulators” (Glenmark Pharmaceuticals S.A., priority 2007, dated 2013):

Target: T1, Human TRPV3 (Homo sapiens, UniProt Q8NET8)
T1 construct: expressed in transfected cells; host or cells: CHO cells (G-418 selected)
T1 sequence (Q8NET8 1-790): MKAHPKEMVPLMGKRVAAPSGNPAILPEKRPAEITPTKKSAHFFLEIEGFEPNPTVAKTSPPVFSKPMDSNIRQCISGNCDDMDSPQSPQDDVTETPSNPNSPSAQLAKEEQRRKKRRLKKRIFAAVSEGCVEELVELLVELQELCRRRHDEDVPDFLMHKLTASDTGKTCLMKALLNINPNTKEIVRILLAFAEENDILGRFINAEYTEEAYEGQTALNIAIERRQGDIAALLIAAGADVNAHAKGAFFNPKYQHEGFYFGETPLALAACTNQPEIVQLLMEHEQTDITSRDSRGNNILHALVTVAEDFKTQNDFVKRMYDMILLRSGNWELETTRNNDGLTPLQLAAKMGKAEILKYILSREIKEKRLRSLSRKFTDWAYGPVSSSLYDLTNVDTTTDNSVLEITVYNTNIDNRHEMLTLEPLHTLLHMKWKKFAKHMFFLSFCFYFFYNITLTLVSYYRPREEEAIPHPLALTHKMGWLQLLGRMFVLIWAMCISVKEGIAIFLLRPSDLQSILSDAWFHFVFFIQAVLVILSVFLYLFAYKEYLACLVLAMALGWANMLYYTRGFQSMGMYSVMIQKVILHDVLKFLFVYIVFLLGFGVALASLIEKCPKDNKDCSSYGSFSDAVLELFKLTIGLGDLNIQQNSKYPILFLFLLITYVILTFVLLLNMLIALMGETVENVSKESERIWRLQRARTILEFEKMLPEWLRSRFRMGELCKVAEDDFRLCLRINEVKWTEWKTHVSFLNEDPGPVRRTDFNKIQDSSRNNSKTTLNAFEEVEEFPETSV
Test: 45Calcium uptake assay: inhibition of 2-APB induced cellular uptake of radioactive calcium
Assay type: cell-based
Details: human TRPV3 expressing CHO cells, 2-APB 500 μM; for inhibition at 1 µM: 1.0 μM compound, read-out: Percentage inhibition at 1.0 μM; for inhibition at 10 µM: 10.0 μM compound, read-out: Percentage inhibition at 10.0 μM
From the text: The illustrative examples of the present invention are screened for TRPV3 activity according to a modified procedure described in Toth, A. et al. Life Sciences (2003), 73, 487-498. The screening of the compounds can be carried out by other methods and procedures known to a person skilled in the art. Such screening methods may be found in Hu, H-Z., et al. J. Biol. Chem. (2004), 279, 35741-35748; Smith, G. D et al. Nature (2002), 418, 186-190 and Peier, A. M., et al. Science (2002), 296, 2046-2049.
Screening for TRPV3 Antagonist Using the ^45Calcium Uptake Assay:
The inhibition of TRPV3 receptor activation was followed as inhibition of 2-APB induced cellular uptake of radioactive calcium. Test compounds were dissolved in DMSO to prepare 20 mM stock and then diluted using plain medium with 0.1% BSA and 1.8 mM CaCl2 to get desired concentration. Final concentration of DMSO in the reaction was 0.5% (v/v). Human TRPV3 expressing CHO cells were grown in F-12 DMEM medium with 10% FBS, 1% penicillin-streptomycin solution, 400 μg/ml of G-418. Cells were seeded 24 h prior to the assay in 96 well plates so as to get ˜50,000 cells per well on the day of experiment. Cells were treated with test compounds for 10 minutes followed by addition of 2-APB at a final concentration of 500 μM and 5 μCi/ml ^45Ca^+2 for 4 minutes. Cells were washed and lysed using buffer containing 1% Triton X-100, 0.1% deoxycholate and 0.1% SDS. Radioactivity in the lysate was measured in Packardt Top count after addition of liquid scintillant.
Concentration response curves were plotted as a % of maximal response obtained in the absence of test antagonist. IC50 value was calculated from concentration response curve by nonlinear regression analysis using GraphPad PRISM software.
Percentage inhibition at concentrations of 1.0 μM and 10.0 μM are given in the table along with IC50 (nM) values for selected examples.

inhibition at 1 µM | inhibition at 10 µM | IC50 | Compound
1.7% | 10% |  | O=C(Cc1ccccc1)NC1CC2(CCC2)Oc2c(Cl)cccc21 (stereo not shown) [Example 1, N-(8-Chloro-3,4-dihydrospiro[chromene-2,1′-cyclobutan]-4-yl)-2-phenylacetamide]
12% | 79% | > 2000 nM | COc1ccccc1CC(=O)NC1CC2(CCC2)Oc2ccc(Cl)cc21 (stereo not shown) [Example 2, N-(6-Chloro-3,4-dihydrospiro[chromene-2,1′-cyclobutan]-4-yl)-2-(2-methoxyphenyl)-acetamide]
0% | 33.1% |  | CS(=O)(=O)Nc1ccccc1CC(=O)NC1CC2(CCC2)Oc2ccc(Cl)cc21 (stereo not shown) [Example 3, N-(6-chloro-3,4-dihydrospiro[chromene-2,1′cyclobutan]-4-yl)-2-{2-[(methylsulfonyl)-amino]phenyl}acetamide]
37.2% | 66.2% |  | COc1cccc(CC(=O)NC2CC3(CCC3)Oc3ccc(Cl)cc32)c1OC1CCCC1 (stereo not shown) [Example 4, N-(6-Chloro-3,4-dihydrospiro[chromene-2,1′-cyclobutan]-4-yl)-2-(2-(cyclopentyloxy)-3-methoxyphenyl)acetamide]
11.7% | 86.8% |  | COc1cccc(CC(=O)N[C@@H]2CC3(CCC3)Oc3c(Cl)cccc32)c1OC1CCCC1 [Example 5, N-[(4R)-8-Chloro-3,4-dihydrospiro[chromene-2,1′-cyclobutan]-4-yl]-2-(2-cyclopentyloxy-3-methoxy)phenylacetamide]
35.3% | 89% |  | COc1cccc(CC(=O)N[C@H]2CC3(CCC3)Oc3c(Cl)cccc32)c1OC1CCCC1 [Example 6, N-[(4S)-8-Chloro-3,4-dihydrospiro[chromene-2,1′-cyclobutan]-4-yl]-2-(2-cyclopentyl-oxy-3-methoxy)phenylacetamide]
9.2% | 20.3% |  | COc1ccc(CC(=O)NC2CC3(CCC3)Oc3ccc(Cl)cc32)cc1OC (stereo not shown) [Example 7, N-(6-Chloro-3,4-dihydrospiro[chromene-2,1′-cyclobutan]-4-yl)-2-(3,4-dimethoxyphenyl)acetamide]
3.8% | 22.5% |  | O=C(Cc1ccccn1)NC1CC2(CCC2)Oc2ccc(Cl)cc21 (stereo not shown) [Example 8, N-(6-Chloro-3,4-dihydrospiro[chromene-2,1′-cyclobutan]-4-yl)-2-pyridin-2-ylacetamide]
11.7% | 68.5% |  | O=C(Cc1cccc2ccccc12)NC1CC2(CCC2)Oc2ccccc21 (stereo not shown) [Example 9, N-(3,4-dihydrospiro[chromene-2,1′-cyclobutan]-4-yl)-2-(1-naphthyl)acetamide]
13.7% | 92.4% |  | O=C(Cc1cccc2ccccc12)NC1CC2(CCC2)Oc2ccc(F)cc21 (stereo not shown) [Example 10]
23.6% | 76% |  | O=C(Cc1cccc2ccccc12)N[C@@H]1CC2(CCC2)Oc2c(F)cc(F)cc21 [Example 11, N-[(4R)-6,8-difluoro-3,4-dihydrospiro[chromene-2,1′-cyclobutan]-4-yl]-2-(1-naphthyl)acetamide]
 |  | 500 to 1000 nM | O=C(Cc1cccc2ccccc12)N[C@@H]1CC2(CCC2)Oc2ccc(Cl)cc21 [Example 12, N-[(4R)-6-Chloro-3,4-dihydrospiro[chromene-2,1′-cyclobutan]-4-yl]-2-(1-naphthyl)acetamide]
5.9% | 87.6% | 1000 to 2000 nM | O=C(Cc1cccc2ccccc12)N[C@H]1CC2(CCC2)Oc2ccc(Cl)cc21 [Example 13, N-[(4S)-6-Chloro-3,4-dihydrospiro[chromene-2,1′-cyclobutan]-4-yl]-2-(1-naphthyl)-acetamide]
9.8% | 78.8% |  | O=C(Cc1cccc2ccccc12)NC1CC2(CCC2)Oc2cc(Cl)ccc21 (stereo not shown) [Example 14, N-(7-Chloro-3,4-dihydrospiro[chromene-2,1′-cyclobutan]-4-yl)-2-(1-naphthyl)acetamide]
 | 27.3% |  | O=C(Cc1cccc2ccccc12)N[C@@H]1CC2(CCC2)Oc2c(Cl)cccc21 [Example 15, N-[(4R)-8-Chloro-3,4-dihydrospiro[chromene-2,1′-cyclobutan]-4-yl]-2-(1-naphthyl)-acetamide]
0% | 35.2% |  | O=C(Cc1cccc2ccccc12)N[C@H]1CC2(CCC2)Oc2c(Cl)cccc21 [Example 16, N-[(4S)-8-Chloro-3,4-dihydrospiro[chromene-2,1′-cyclobutan]-4-yl]-2-(1-naphthyl)-acetamide]
21.9% | 70% |  | O=C(Cc1cccc2ccccc12)NC1CC2(CCC2)Oc2cccc(O)c21 (stereo not shown) [Example 17, N-(5-Hydroxy-3,4-dihydrospiro[chromene-2,1′-cyclobutan]-4-yl)-2-(1-naphthyl)-acetamide]
36.1% | 72.3% |  | O=C(Cc1ccc2ccccc2c1)NC1CC2(CCC2)Oc2ccc(Cl)cc21 (stereo not shown) [Example 18, N-(6-Chloro-3,4-dihydrospiro[chromene-2,1′-cyclobutan]-4-yl)-2-(2-naphthyl)acetamide]
23.1% | 61.7% |  | COc1ccc2cc([C@H](C)C(=O)N[C@@H]3CC4(CCC4)Oc4ccc(Cl)cc43)ccc2c1 [Example 19, (2S)—N-[(4R)-6-Chloro-3,4-dihydrospiro[chromene-2,1′-cyclobutan]-4-yl]-2-(6-methoxy-2-naphthyl)propanamide]
19.3% | 50.9% |  | COc1ccc2cc([C@H](C)C(=O)N[C@H]3CC4(CCC4)Oc4ccc(Cl)cc43)ccc2c1 [Example 20, (2S)—N-[(4S)-6-Chloro-3,4-dihydrospiro[chromene-2,1′-cyclobutan]-4-yl]-2-(6-methoxy-2-naphthyl)propanamide]
63.5% | 93.6% | 500 to 1000 nM | O=C(CC1CCCc2ccccc21)NC1CC2(CCC2)Oc2ccc(Cl)cc21 (stereo not shown) [Example 21, N-(6-Chloro-3,4-dihydrospiro[chromene-2,1′-cyclobutan]-4-yl)-2-(1,2,3,4-tetrahydronaphthalen-1-yl)acetamide]
35.3% | 72.1% |  | O=C(CC1CCc2ccccc2C1)NC1CC2(CCC2)Oc2ccc(Cl)cc21 (stereo not shown) [Example 22, N-[(6-Chloro-3,4-dihydrospiro[chromene-2,1′-cyclobutan]-4-yl)]-2-(1,2,3,4-tetrahydronaphthalen-2-yl)acetamide]
6.2% | 65.3% |  | O=C(Cc1ccc2c(c1)OCO2)NC1CC2(CCC2)Oc2ccc(Cl)cc21 (stereo not shown) [Example 23, 2-(1,3-Benzodioxol-5-yl)-N-(6-chloro-3,4-dihydrospiro[chromene-2,1′-cyclobutan]-4-yl)acetamide]
26.9% | 89.9% | 1000 to 2000 nM | Cc1c(CC(=O)NC2CC3(CCC3)Oc3ccc(F)cc32)[nH]c2ccc(F)cc12 (stereo not shown) [Example 24, N-(6-Fluoro-3,4-dihydrospiro[chromene-2,1′-cyclobutan]-4-yl)-2-(5-fluoro-3-methyl-1H-indol-2-yl)acetamide]
19% | 48% |  | COc1ccc2[nH]c(C)c(CC(=O)NC3CC4(CCC4)Oc4ccc(Cl)cc43)c2c1 (stereo not shown) [Example 25, N-(6-Chloro-3,4-dihydrospiro[chromene-2,1′-cyclobutan]-4-yl)-2-(5-methoxy-2-methyl-1H-indol-3-yl)acetamide]
